The source of these data is article PMC11695631 (Nature Communications, 2025).

For this assay, the target named is Vesicular monoamine transporter 2 (VMAT2) (Homo sapiens, UniProt Q05940). As to the kind of experiment: cryo-EM structure at […] Å. The format is cell-based.

Structures are written as SMILES.

Vesicular monoamine transporter 2 (VMAT2), sequence (Q05940 12-514): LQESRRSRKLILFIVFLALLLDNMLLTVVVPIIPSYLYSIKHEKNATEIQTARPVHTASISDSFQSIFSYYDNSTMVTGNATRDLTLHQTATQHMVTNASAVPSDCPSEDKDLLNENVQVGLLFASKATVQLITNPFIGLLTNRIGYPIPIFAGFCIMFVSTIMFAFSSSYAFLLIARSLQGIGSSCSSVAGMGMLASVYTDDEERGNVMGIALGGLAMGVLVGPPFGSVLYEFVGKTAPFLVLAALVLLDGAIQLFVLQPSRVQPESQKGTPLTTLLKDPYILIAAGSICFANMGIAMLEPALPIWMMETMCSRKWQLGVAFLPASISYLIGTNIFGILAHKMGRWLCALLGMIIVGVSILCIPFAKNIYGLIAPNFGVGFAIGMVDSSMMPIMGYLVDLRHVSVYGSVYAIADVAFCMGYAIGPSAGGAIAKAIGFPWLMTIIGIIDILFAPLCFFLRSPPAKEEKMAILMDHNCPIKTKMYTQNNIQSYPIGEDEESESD

Take `COc1cc2c(cc1OC)C1CC(=O)C(CC(C)C)CN1CC2` (stereo not shown) [TBZ, tetrabenazine]: the IC50 came out at 20.4 ± 4.1 nM.
